Measurements as given in US10351566B2, “Therapeutic compounds for pain and synthesis thereof” (priority 2015, dated 2019).
Where “and” joins values, the source holds several entries; their conditions need not be identical. Equal entries are not always repeated. Where two headings read alike, the source gives them in different places.

Columns and labels:
hERG = hERG (Homo sapiens, UniProt Q12809); assay: hERG in vitro safety pharmacology
Protocol: The IC50 for hERG was greater than 10 μM. A generally accepted safety margin against hERG and other important cardiac targets is ≥30 (a safety margin is calculated as: IC50/Cmax, free or EC50/Cmax, free).

[1] = format: in vivo; conditions: mice, 10 mg/kg IP
Protocol: Mice received a 10 mg/kg IP dose of Formula 1. The animals were placed in the open field apparatus after 30 minutes (box of 0.5×0.5×0.5 m length, width and height) for a period of 5 min. The animals' walking distance and speed were evaluated and compared to the vehicle-treated group.

CYP2C8 = biological target: T1, CYP2C8 (Homo sapiens, UniProt P10632); assay: Reversible CYP450 inhibition, cocktail format; format: biochemical; conditions: 2C8, reversible inhibition, preliminary
T1 sequence (P10632 1-490): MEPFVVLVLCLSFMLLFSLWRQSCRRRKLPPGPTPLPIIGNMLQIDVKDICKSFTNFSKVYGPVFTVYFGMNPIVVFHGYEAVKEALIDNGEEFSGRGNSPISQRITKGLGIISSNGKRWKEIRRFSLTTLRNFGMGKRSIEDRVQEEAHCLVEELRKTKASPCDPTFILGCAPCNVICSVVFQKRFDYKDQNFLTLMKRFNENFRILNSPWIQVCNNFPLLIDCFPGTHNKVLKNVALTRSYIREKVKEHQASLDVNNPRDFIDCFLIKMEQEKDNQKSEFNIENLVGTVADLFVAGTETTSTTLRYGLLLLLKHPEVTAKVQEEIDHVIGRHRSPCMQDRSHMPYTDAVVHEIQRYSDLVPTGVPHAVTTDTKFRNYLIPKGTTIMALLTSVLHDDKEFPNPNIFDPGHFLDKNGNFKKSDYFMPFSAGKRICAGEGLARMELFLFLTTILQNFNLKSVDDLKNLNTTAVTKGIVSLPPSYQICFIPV
Protocol: (§1) Preliminary in vitro studies on reversible inhibition of major CYP450 enzymes were conducted in a cocktail format for this compound. The IC50 values were 4 μM for CYP2C9, 5 μM for CYP2C19, and greater than 10 μM for CYP3A4, 2C8, 2D6, and 1A2. If total plasma concentrations in humans are less than 0.4 μM, then in vivo drug interaction studies in clinical trials may not be required for this compound.

CYP1A2 = biological target: T2, CYP1A2 (Homo sapiens, UniProt P05177); assay: Reversible CYP450 inhibition, cocktail format; format: biochemical; conditions: 1A2, reversible inhibition, preliminary
T2 sequence (P05177 1-516): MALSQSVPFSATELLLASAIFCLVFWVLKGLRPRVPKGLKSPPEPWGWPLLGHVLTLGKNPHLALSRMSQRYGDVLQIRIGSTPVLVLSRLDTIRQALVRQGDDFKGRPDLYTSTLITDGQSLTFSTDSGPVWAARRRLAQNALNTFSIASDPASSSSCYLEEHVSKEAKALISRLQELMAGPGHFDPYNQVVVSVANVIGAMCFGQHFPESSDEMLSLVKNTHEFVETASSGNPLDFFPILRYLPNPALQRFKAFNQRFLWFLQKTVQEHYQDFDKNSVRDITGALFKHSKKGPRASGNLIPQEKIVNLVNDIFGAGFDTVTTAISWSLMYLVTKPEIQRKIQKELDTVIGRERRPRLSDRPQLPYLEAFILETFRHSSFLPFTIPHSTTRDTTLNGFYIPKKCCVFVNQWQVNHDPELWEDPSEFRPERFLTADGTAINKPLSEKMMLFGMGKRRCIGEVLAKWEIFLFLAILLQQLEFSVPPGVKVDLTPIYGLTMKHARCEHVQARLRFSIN
Protocol: as §1

CYP2C19 = CYP2C19 (Homo sapiens, UniProt P33261); assay: Reversible CYP450 inhibition, cocktail format; format: biochemical; conditions: preliminary
Sequence of CYP2C19 (P33261 whole entry): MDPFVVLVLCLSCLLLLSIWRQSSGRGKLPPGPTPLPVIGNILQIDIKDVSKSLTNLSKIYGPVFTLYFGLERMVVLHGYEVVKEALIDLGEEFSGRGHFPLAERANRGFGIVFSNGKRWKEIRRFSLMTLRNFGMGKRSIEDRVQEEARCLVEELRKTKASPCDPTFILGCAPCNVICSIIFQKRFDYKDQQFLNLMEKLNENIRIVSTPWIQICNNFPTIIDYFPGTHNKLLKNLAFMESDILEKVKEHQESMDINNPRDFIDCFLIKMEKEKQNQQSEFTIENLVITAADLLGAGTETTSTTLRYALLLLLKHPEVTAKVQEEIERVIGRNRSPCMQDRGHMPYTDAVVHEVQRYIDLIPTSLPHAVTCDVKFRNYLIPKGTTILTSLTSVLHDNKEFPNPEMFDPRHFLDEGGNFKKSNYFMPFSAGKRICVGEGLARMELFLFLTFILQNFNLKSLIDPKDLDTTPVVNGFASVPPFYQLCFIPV
Protocol: as §1

in vivo = conditions: mice; for half-life: read-out: terminal half-life (converted)
Protocol: Pharmacokinetic studies of MD-354 were performed in mice following 50 mg/kg oral and 5 mg/kg intravenous administration (FIG. 17).
The plasma concentration decreased in a multi-phasic manner to 0.76 ng/mL at 8 hours post-dose.

[2] = test system: selected targets (including some important cardiovascular safety-related targets); conditions: at 10 μM
Protocol: A Cerep activity screen was conducted and was negative against the selected targets at 10 μM (including some important cardiovascular safety-related targets) for Formula 1.

[3] = test system: Taxol-induced neuropathic pain; assay: Taxol-induced neuropathic pain in mice, oral route; format: in vivo; conditions: oral 50 mg/kg, study day 14, repeated daily dosing day 8 to day 14
[4] = test system: CCI-induced neuropathic pain; assay: CCI-induced neuropathic pain in the rat, oral; format: in vivo; conditions: CCI rats
Protocol: Study plan in brief: SD male rats were operated as described by Bennet and Xie7. On study day 7, the sensitivity of the animals to von Frey was assessed. […] The animals were then dosed with either vehicle, gabapentin or Formula 1. Treatment with Formula 1 was not effective 2 h post-single dose.

[5] = format: in vivo; conditions: naïve rats, dosing for 7 days
Source text: At 4 days, vehicle-treated animals gained approximately 1% body weight, going from 25.24±0.74 g to 25.50±0.64 g. Formula 1 treated animals went from 25.28±1.04 g to 25.82±1.25 g.

[6] = format: in vivo, rats; conditions: for Findings: PO, Rat
Protocol: The tolerability of Formula 1 was evaluated in mice and rats. […] The compound was also tolerated following a single dose of 100 mg/kg in the mouse.

in vitro = in vitro ADME; conditions: 1 μM; for microsomal CLint: read-out: intrinsic clearance (CLint)
Protocol: Metabolic stability studies in mouse, rat and human liver microsomes were performed at a compound concentration of 1 μM.

[7] = 30 minutes after dosing, 5 min in open field
[8] = oral, two additional sets of data, listed as 354

Sequence of hERG (Q12809 whole entry): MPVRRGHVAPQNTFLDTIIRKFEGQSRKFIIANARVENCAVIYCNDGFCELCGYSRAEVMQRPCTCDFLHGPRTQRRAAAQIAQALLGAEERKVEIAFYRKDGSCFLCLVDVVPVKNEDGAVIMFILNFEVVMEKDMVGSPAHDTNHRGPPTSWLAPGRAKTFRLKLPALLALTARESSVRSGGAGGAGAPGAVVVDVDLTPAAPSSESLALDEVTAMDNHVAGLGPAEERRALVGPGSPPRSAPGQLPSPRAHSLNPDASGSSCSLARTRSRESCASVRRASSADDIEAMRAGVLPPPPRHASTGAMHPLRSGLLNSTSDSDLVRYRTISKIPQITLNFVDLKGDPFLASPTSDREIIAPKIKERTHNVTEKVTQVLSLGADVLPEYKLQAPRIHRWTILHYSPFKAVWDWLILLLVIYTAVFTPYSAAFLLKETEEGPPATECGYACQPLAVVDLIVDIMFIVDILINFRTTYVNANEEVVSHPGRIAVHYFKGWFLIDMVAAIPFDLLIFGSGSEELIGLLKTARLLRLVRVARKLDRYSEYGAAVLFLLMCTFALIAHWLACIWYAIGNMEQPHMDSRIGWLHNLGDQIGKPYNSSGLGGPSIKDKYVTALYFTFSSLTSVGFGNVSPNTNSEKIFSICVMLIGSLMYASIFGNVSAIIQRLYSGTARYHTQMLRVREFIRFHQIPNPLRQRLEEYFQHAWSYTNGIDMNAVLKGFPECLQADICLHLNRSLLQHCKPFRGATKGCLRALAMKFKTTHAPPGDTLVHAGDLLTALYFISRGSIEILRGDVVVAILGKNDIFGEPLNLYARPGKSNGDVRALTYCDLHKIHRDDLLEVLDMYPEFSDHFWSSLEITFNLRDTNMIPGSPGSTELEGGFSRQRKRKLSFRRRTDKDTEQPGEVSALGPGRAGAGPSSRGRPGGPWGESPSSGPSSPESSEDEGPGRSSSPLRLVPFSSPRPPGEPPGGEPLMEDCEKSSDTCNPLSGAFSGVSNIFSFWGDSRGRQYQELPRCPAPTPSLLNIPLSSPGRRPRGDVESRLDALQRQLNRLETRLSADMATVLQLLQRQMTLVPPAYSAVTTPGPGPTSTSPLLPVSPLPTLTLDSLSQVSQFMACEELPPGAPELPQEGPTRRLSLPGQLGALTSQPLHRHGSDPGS

CC(C)(C)C(=O)O[C@@H]1[C@@H]2[C@H]3C[C@H](C[C@@H]1N3Cc1ccccn1)CN2C(=O)CC(F)(F)F (relative stereo) [Formula 1, (2S*,3S*,3aS*,6R*,7aR*)-1-(pyridin-2-ylmethyl)-4-(3,3,3-trifluoropropanoyl)octahydro-1H-2,6-methanopyrrolo[3,2-b]pyridin-3-yl pivalate]
IC50 (hERG): > 10 µM
walking distance and speed vs. vehicle-treated group [1]: No difference was found
Distance [1, 7]: 1.94 ± 0.89 m
Time spent in the center of the field [1, 7]: 34.82 ± 23.53 s
IC50 (CYP2C8): > 10 µM
IC50 (CYP1A2): > 10 µM
IC50 (CYP2C19): 5 µM
plasma concentration at 8 hours post-dose (in vivo; intravenous 5 mg/kg): 6.74 ng/mL
plasma concentration at 8 hours post-dose (in vivo; oral 50 mg/kg): 0.76 ng/mL
time to peak plasma concentration (in vivo; oral 50 mg/kg): ≤ 5 min
time to peak plasma concentration (in vivo; oral, two additional sets of data): ≤ 5 min
oral bioavailability (in vivo; [8]): 14.7%
peak plasma concentration (in vivo; [8]): 3157 ng/mL and 3001 ng/mL
plasma concentration at 8 hours post-administration (in vivo; [8]): 8.4 ng/mL and 11.4 ng/mL
terminal half-life (in vivo; [8]): 75 min
half-life (in vivo; mouse, in vivo, iv, 5 mg/kg, intravenous 5 mg/kg, excluding the 8 h time point): 21 min
bioavailability (in vivo; mouse, in vivo, oral 50 mg/kg vs intravenous 5 mg/kg, read-out: absolute oral bioavailability): 10.5%
half-life (in vivo; mouse, in vivo, po, 50 mg/kg, oral 50 mg/kg): 51 min
bioavailability (in vivo; mouse, in vivo, po, oral, two additional sets of data, read-out: oral bioavailability): 14.1%
half-life (in vivo; mouse, in vivo, po, oral, two additional sets of data): 71.4 min
C0 (in vivo; mouse, in vivo, intravenous 5 mg/kg, read-out: initial plasma concentration (C0)): 7940 ng/mL
Vd (in vivo; mouse, in vivo, intravenous 5 mg/kg, read-out: steady-state volume of distribution (Vss)): 1.08 L/kg
clearance (in vivo; mouse, in vivo, intravenous 5 mg/kg, read-out: systemic plasma clearance (CLp)): 46.1 mL/min/kg
Cmax (in vivo; mouse, in vivo, oral 50 mg/kg, read-out: peak plasma concentration (Cmax)): 1930 ng/mL
Cerep activity screen result [2]: negative
withdrawal force [3]: This activity was maintained
change of activity on continuous dosing [4]: increase in compound activity
withdrawal force (von Frey) ([4]; 2 h post-single dose): not effective
withdrawal threshold ([4]; daily oral 50 mg/kg, study day 11, 2 h post-treatment): significant increase in the withdrawal threshold
effect on body weight gain [5]: did not affect body weight gain
Findings ([6]; 50 mg/kg, 5 days): NPF
Findings ([6]; 100 mg/kg, 1 day): NPF
adverse effects ([6]; rats, oral, once daily 50 mg/kg for 5 days): did not show any adverse effects
half-life (in vitro; human liver microsomes): 8 min
microsomal CLint (in vitro; human liver microsomes): 174 µL/min/mg
half-life (in vitro; mouse liver microsomes): < 4 min
microsomal CLint (in vitro; mouse liver microsomes): > 346 µL/min/mg
half-life (in vitro; rat liver microsomes): < 4 min
microsomal CLint (in vitro; rat liver microsomes): > 346 µL/min/mg
